Test results from patent US10093623B2, “Cyclic amides as MetAP-2 inhibitors” (MERCK PATENT GmbH, priority 2012, dated 2018).

What follows are compounds tested against MetAP-2 (Homo sapiens, UniProt P50579) (assay: MetAP-2 activity measurement (coupled enzymatic reactions, Met-Arg-Ser substrate, dianisidine detection at 450 nm)). Conditions: Inhibition of MetAP-2; read-out: IC50 enzyme.
Assay type: biochemical
Procedure, shortened: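 Coupled continuous assay with Met-Arg-Ser tripeptide substrate: released methionine oxidised by L-amino acid oxidase to give H2O2, which peroxidase uses to oxidise dianisidine, followed at 450 nm. Activity taken as slope of absorbance versus time over the visually linear region; dianisidine extinction coefficient converts to mol Met per time.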

Chain of MetAP-2 (P50579 whole entry, species assumed): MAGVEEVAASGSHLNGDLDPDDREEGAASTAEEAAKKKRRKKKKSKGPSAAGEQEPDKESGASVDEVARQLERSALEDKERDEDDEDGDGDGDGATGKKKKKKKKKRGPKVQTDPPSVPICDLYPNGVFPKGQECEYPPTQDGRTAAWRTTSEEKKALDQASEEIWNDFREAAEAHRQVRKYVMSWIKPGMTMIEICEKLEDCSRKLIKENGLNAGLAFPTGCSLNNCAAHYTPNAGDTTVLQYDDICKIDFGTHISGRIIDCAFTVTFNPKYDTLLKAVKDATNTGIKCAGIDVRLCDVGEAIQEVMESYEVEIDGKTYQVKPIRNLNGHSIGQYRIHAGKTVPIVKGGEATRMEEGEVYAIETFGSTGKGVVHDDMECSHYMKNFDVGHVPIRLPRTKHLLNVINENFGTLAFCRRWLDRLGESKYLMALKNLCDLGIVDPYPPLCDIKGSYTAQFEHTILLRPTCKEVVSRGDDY

Structure (SMILES) | IC50
NC(=O)c1cc2cc(N3CC[C@@](O)(C(=O)NCc4cc(F)cc(Cl)c4)C3=O)ccc2[nH]1 [B79, 5-[(R)-3-(3-Chloro-5-fluorobenzylcarbamoyl)-3-hydroxy-2-oxopyrrolidin-1-yl]-1H-indole-2-carboxamide] | 1000 to 10000 nM
CCOC(=O)c1cc2cc(N3CC[C@](O)(C(=O)NCc4cc(F)cc(Cl)c4)C3=O)ccc2[nH]1 [B80, Ethyl 5-[(S)-3-(3-chloro-5-fluorobenzylcarbamoyl)-3-hydroxy-2-oxopyrrolidin-1-yl]-1H-indole-2-carboxylate] | 10 to 1000 nM
CCOC(=O)c1cc2cc(N3CC[C@@](O)(C(=O)NCc4cc(F)cc(Cl)c4)C3=O)ccc2[nH]1 [B81, Ethyl 5-[(R)-3-(3-chloro-5-fluorobenzylcarbamoyl)-3-hydroxy-2-oxopyrrolidin-1-yl]-1H-indole-2-carboxylate] | > 10000 nM
COCCn1cc(N2CCC(O)(C(=O)NCc3cc(F)cc(Cl)c3)C2=O)cn1 (stereo not shown) [B82, N-(3-Chloro-5-fluorobenzyl)-3-hydroxy-1-[1-(2-methoxyethyl)-1H-pyrazol-4-yl]-2-oxo-pyrrolidine-3-carboxamide] | 10 to 1000 nM
O=C(NCc1cc(F)cc(Cl)c1)[C@@]1(O)CCN(c2cnc3[nH]c(C(F)(F)F)cc3c2)C1=O [B83, N-(3-Chloro-5-fluorobenzyl)-(S)-3-hydroxy-2-oxo-1-(2-trifluoromethyl-1H-pyrrolo-[2,3-b]pyridin-5-yl)pyrrolidine-3-carboxamide] | 10 to 1000 nM
O=C(O)c1cc2cc(N3CC[C@](O)(C(=O)NCc4cc(F)cc(Cl)c4)C3=O)ccc2[nH]1 [B84, 5-[(S)-3-(3-Chloro-5-fluorobenzylcarbamoyl)-3-hydroxy-2-oxopyrrolidin-1-yl]-1H-indole-2-carboxylic acid] | 10 to 1000 nM
O=C(O)c1cc2cc(N3CC[C@@](O)(C(=O)NCc4cc(F)cc(Cl)c4)C3=O)ccc2[nH]1 [B85, 5-[(R)-3-(3-Chloro-5-fluorobenzylcarbamoyl)-3-hydroxy-2-oxopyrrolidin-1-yl]-1H-indole-2-carboxylic acid] | > 10000 nM
N#CCn1cc(N2CCC(O)(C(=O)NCc3cc(F)cc(Cl)c3)C2=O)cn1 (stereo not shown) [B87, N-(3-Chloro-5-fluorobenzyl)-1-(1-cyanomethyl-1H-pyrazol-4-yl)-3-hydroxy-2-oxopyrrolidine-3-carboxamide] | 10 to 1000 nM
CC(C)NC(=O)c1cc2cc(N3CC[C@@](O)(C(=O)NCc4cc(F)cc(Cl)c4)C3=O)ccc2[nH]1 [B89, N-Isopropyl-5-[(R)-3-(3-chloro-5-fluorobenzylcarbamoyl)-3-hydroxy-2-oxopyrrolidin-1-yl]-1H-indole-2-carboxamide] | > 10000 nM
CN(C)C(=O)c1cc2cc(N3CC[C@@](O)(C(=O)NCc4cc(F)cc(Cl)c4)C3=O)ccc2[nH]1 [B90, N,N-Dimethyl-5-[(R)-3-(3-chloro-5-fluorobenzylcarbamoyl)-3-hydroxy-2-oxopyrrolidin-1-yl]-1H-indole-2-carboxamide] | > 10000 nM
CC(=O)OC1(C(=O)NCc2cc(F)cc(Cl)c2)CCN(c2ccc3c(c2)CCC(=O)N3)C1=O (stereo not shown) [B91, 3-(3-Chloro-5-fluorobenzyl-carbamoyl)-2-oxo-1-(2-oxo-1,2,3,4-tetrahydroquinolin-6-yl)-pyrrolidin-3-yl acetate] | 1000 to 10000 nM
O=C(NCc1cc(F)cc(Cl)c1)[C@@]1(O)CCN(c2cnc3[nH]cnc3c2)C1=O [B92, N-(3-Chloro-5-fluorobenzyl)-(S)-3-hydroxy-1-(3H-imidazo-[4,5-b]pyridin-6-yl)-2-oxo-pyrrolidine-3-carboxamide] | 10 to 1000 nM
O=C(NCc1cc(F)cc(Cl)c1)[C@]1(O)CCN(c2cnc3[nH]cnc3c2)C1=O [B93, N-(3-Chloro-5-fluorobenzyl)-(R)-3-hydroxy-1-(3H-imidazo-[4,5-b]pyridin-6-yl)-2-oxo-pyrrolidine-3-carboxamide] | 1000 to 10000 nM
CN(C)C(=O)c1cc2cc(N3CC[C@](O)(C(=O)NCc4cc(F)cc(Cl)c4)C3=O)ccc2[nH]1 [B95, N,N-Dimethyl-5-[(S)-3-(3-chloro-5-fluorobenzylcarbamoyl)-3-hydroxy-2-oxopyrrolidin-1-yl]-1H-indole-2-carboxamide] | 10 to 1000 nM
CNC(=O)c1cc2cc(N3CC[C@](O)(C(=O)NCc4cc(F)cc(Cl)c4)C3=O)ccc2[nH]1 [B96, N-Methyl-5-[(S)-3-(3-chloro-5-fluorobenzylcarbamoyl)-3-hydroxy-2-oxopyrrolidin-1-yl]-1H-indole-2-carboxamide] | 10 to 1000 nM
CC(C)NC(=O)c1cc2cc(N3CC[C@](O)(C(=O)NCc4cc(F)cc(Cl)c4)C3=O)ccc2[nH]1 [B97, N-Isopropyl-5-[(S)-3-(3-chloro-5-fluorobenzylcarbamoyl)-3-hydroxy-2-oxopyrrolidin-1-yl]-1H-indole-2-carboxamide] | 10 to 1000 nM
COCCn1cc(N2CC[C@](O)(C(=O)NCc3cc(F)cc(Cl)c3)C2=O)cn1 [B99, N-(3-Chloro-5-fluorobenzyl)-(S)-3-hydroxy-1-[1-(2-methoxy-ethyl)-1H-pyrazol-4-yl]-2-oxo-pyrrolidine-3-carboxamide] | 10 to 1000 nM

Structure (SMILES) | IC50
COCCn1cc(N2CC[C@@](O)(C(=O)NCc3cc(F)cc(Cl)c3)C2=O)cn1 [B100, N-(3-Chloro-5-fluorobenzyl)-(R)-3-hydroxy-1-[1-(2-methoxy-ethyl)-1H-pyrazol-4-yl]-2-oxo-pyrrolidine-3-carboxamide] | > 10000 nM
NS(=O)(=O)c1ccc(N2CC[C@](O)(C(=O)NCc3cc(F)cc(Cl)c3)C2=O)cc1 [B101, N-(3-Chloro-5-fluorobenzyl)-(S)-3-hydroxy-2-oxo-1-(4-sulfamoyl-phenyl)pyrrolidine-3-carboxamide] | 10 to 1000 nM
CNC(=O)c1cc2cc(N3CC[C@@](O)(C(=O)NCc4cc(F)cc(Cl)c4)C3=O)ccc2[nH]1 [B102, N-Methyl-5-[(R)-3-(3-chloro-5-fluorobenzylcarbamoyl)-3-hydroxy-2-oxopyrrolidin-1-yl]-1H-indole-2-carboxamide] | > 10000 nM
NC(=O)[C@@]1(O)CCN(c2ccc3c(c2)CCC(=O)N3)C1=O [B103, (S)-3-Hydroxy-2-oxo-1-(2-oxo-1,2,3,4-tetrahydroquinolin-6-yl)-pyrrolidine-3-carboxamide] | > 10000 nM
O=C(NCc1cc(F)cc(Cl)c1)C1(O)CCN(c2cnc3[nH]cc(C(F)(F)F)c3c2)C1=O (stereo not shown) [B104, N-(3-Chloro-5-fluorobenzyl)-3-hydroxy-2-oxo-1-(3-trifluoro-methyl-1H-pyrrolo[2,3-b]pyridin-5-yl)pyrrolidine-3-carboxamide] | 10 to 1000 nM
COC(=O)CCc1cc(N2CCC(O)(C(=O)NCc3cc(F)cc(Cl)c3)C2=O)ccc1NC(=O)OC(C)(C)C (stereo not shown) [B105, Methyl 3-{2-tert-butoxy-carbonylamino-5-[3-(3-chloro-5-fluorobenzylcarbamoyl)-3-hydroxy-2-oxopyrrolidin-1-yl]-phenyl}propionate] | 10 to 1000 nM
CC(C)(C)OC(=O)Nc1ccc(N2CCC(O)(C(=O)NCc3cc(F)cc(Cl)c3)C2=O)cc1CCC(=O)O (stereo not shown) [B106, 3-{2-tert-Butoxycarbonylamino-5-[3-(3-chloro-5-fluorobenzyl-carbamoyl)-3-hydroxy-2-oxo-pyrrolidin-1-yl]phenyl}propionic acid] | 1000 to 10000 nM
NS(=O)(=O)c1cccc(N2CCC(O)(C(=O)NCc3cc(F)cc(Cl)c3)C2=O)c1 (stereo not shown) [B107, N-(3-Chloro-5-fluorobenzyl)-3-hydroxy-2-oxo-1-(3-sulfamoyl-phenyl)pyrrolidine-3-carboxamide] | 10 to 1000 nM
NCCOCCOCCNC(=O)c1cc2cc(N3CC[C@](O)(C(=O)NCc4cc(F)cc(Cl)c4)C3=O)ccc2[nH]1 [B108, N-({2-[2-(2-Aminoethoxy)-ethoxy]ethyl})-5-[(S)-3-(3-chloro-5-fluorobenzylcarbamoyl)-3-hydroxy-2-oxopyrrolidin-1-yl]-1H-indole-2-carboxamide] | 10 to 1000 nM
O=C1CCc2cc(N3CCC(O)(C(=O)NCc4cc(F)cc(Cl)c4)C3=O)c(F)cc2N1 (stereo not shown) [B109, N-(3-Chloro-5-fluorobenzyl)-1-(7-fluoro-2-oxo-1,2,3,4-tetrahydroquinolin-6-yl)-3-hydroxy-2-oxopyrrolidine-3-carboxamide] | 10 to 1000 nM
O=C(NCCc1cc(F)cc(F)c1)[C@@]1(O)CCN(c2ccc3[nH]ccc3c2)C1=O [B110, N-[2-(3,5-Difluorophenyl)ethyl]-(S)-3-hydroxy-1-(1H-indol-5-yl)-2-oxopyrrolidine-3-carboxamide] | 10 to 1000 nM
O=C(NCCc1cc(F)cc(F)c1)[C@]1(O)CCN(c2ccc3[nH]ccc3c2)C1=O [B111, N-[2-(3,5-Difluorophenyl)ethyl]-(R)-3-hydroxy-1-(1H-indol-5-yl)-2-oxopyrrolidine-3-carboxamide] | 1000 to 10000 nM
O=C(c1cc2cc(N3CC[C@](O)(C(=O)NCc4cc(F)cc(Cl)c4)C3=O)ccc2[nH]1)N1CCOCC1 [B112, N-(3-Chloro-5-fluorobenzyl)-(S)-3-hydroxy-1-[2-(morpholine-4-carbonyl)-1H-indol-5-yl]-2-oxo-pyrrolidine-3-carboxamide] | 10 to 1000 nM
NCCOCCNC(=O)c1cc2cc(N3CC[C@](O)(C(=O)NCc4cc(F)cc(Cl)c4)C3=O)ccc2[nH]1 [B113, N-[2-(2-Aminoethoxy)ethyl]-5-[(S)-3-(3-chloro-5-fluorobenzylcarbamoyl)-3-hydroxy-2-oxopyrrolidin-1-yl]-1H-indole-2-carboxamide] | 10 to 1000 nM
O=C(c1cc2cc(N3CC[C@](O)(C(=O)NCc4cc(F)cc(Cl)c4)C3=O)ccc2[nH]1)N1CCC1 [B114, N-(3-Chloro-5-fluorobenzyl)-(S)-1-[2-(azetidine-1-carbonyl)-1H-indol-5-yl]-3-hydroxy-2-oxo-pyrrolidine-3-carboxamide] | 10 to 1000 nM
NS(=O)(=O)c1ccc(N2CCC(O)(C(=O)NCc3cc(F)cc(Cl)c3)C2=O)cc1 (stereo not shown) [B115, N-(3-Chloro-5-fluorobenzyl)-3-hydroxy-2-oxo-1-(4-sulfamoyl-phenyl)pyrrolidine-3-carboxamide] | 10 to 1000 nM
N#CCn1cc(N2CC[C@](O)(C(=O)NCc3cc(F)cc(Cl)c3)C2=O)cn1 [B116, N-(3-Chloro-5-fluorobenzyl)-(S)-1-(1-cyanomethyl-1H-pyrazol-4-yl)-3-hydroxy-2-oxopyrrolidine-3-carboxamide] | 10 to 1000 nM
